Columns and labels:
Assay in all cases: maximum observed lethal fraction; higher = more cell death
U2OS BAX/BAK1 DKO = tested on: U2OS BAX/BAK1 DKO
U2OS BCL2L12-KO = tested on: U2OS BCL2L12-KO
U2OS PTBP1-KO = tested on: U2OS PTBP1-KO
U2OS = tested on: U2OS
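Note: FLICK assay: SYTOX Green fluorescence of dead cells tracked over time after drugging in 96-well plates, with total cell counts taken from Triton X-100 lysed wells.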

CN(C)C(=O)c1cc2cnc(Nc3ccc(N4CCNCC4)cn3)nc2n1C1CCCC1 [Ribociclib]
maximum observed lethal fraction
Conditions	0.01 µM	0.0316 µM	0.1 µM	0.316 µM	1 µM	3.16 µM	10 µM
U2OS	0.0675	0.0565	0.0602	0.0591	0.0629	0.0661	0.077
U2OS BAX/BAK1 DKO	0.0572	0.057	0.0609	0.0673	0.0658	0.0721	0.082
U2OS BCL2L12-KO	0.0551	0.0572	0.0587	0.0607	0.0645	0.07	0.0804
U2OS PTBP1-KO	0.0584	0.0595	0.064	0.0704	0.0696	0.0751	0.0787

CCN1CCN(Cc2ccc(Nc3ncc(F)c(-c4cc(F)c5nc(C)n(C(C)C)c5c4)n3)nc2)CC1 [Abemaciclib]
maximum observed lethal fraction
Conditions	0.01 µM	0.0316 µM	0.1 µM	0.316 µM	1 µM	3.16 µM	10 µM
U2OS	0.0681	0.0675	0.0675	0.0855	0.376	0.314	0.851
U2OS BAX/BAK1 DKO	0.0682	0.0681	0.0721	0.0802	0.0972	0.0964	0.339
U2OS BCL2L12-KO	0.0701	0.071	0.073	0.0769	0.211	0.457	0.889
U2OS PTBP1-KO	0.0734	0.0787	0.081	0.0922	0.161	0.257	0.739

COC(=O)C[C@](O)(CCCC(C)(C)O)C(=O)O[C@@H]1C(OC)=C[C@]23CCCN2CCc2cc4c(cc2[C@H]13)OCO4 [Homoharringtonine]
maximum observed lethal fraction
Conditions	0.01 µM	0.0316 µM	0.1 µM	0.316 µM	1 µM	3.16 µM	10 µM
U2OS	0.0607	0.0942	0.296	0.395	0.578	0.692	0.722
U2OS BAX/BAK1 DKO	0.0663	0.099	0.0992	0.106	0.112	0.102	0.106
U2OS BCL2L12-KO	0.0701	0.0909	0.0937	0.102	0.0962	0.115	0.21
U2OS PTBP1-KO	0.0765	0.165	0.0974	0.109	0.186	0.184	0.197

Nc1ncnc2c1ncn2[C@@H]1O[C@H](CO)C[C@H]1O [Cordycepin]
maximum observed lethal fraction
Conditions	0.1 µM	0.316 µM	1 µM	3.16 µM	10 µM	31.6 µM	100 µM
U2OS	0.0524	0.0543	0.0522	0.0545	0.054	0.0774	0.451
U2OS BAX/BAK1 DKO	0.0507	0.0537	0.0531	0.0551	0.0542	0.0698	0.072
U2OS BCL2L12-KO	0.0657	0.0642	0.064	0.068	0.0693	0.0825	0.616
U2OS PTBP1-KO	0.068	0.0684	0.0659	0.0646	0.0665	0.0847	0.517

CC(C)[C@]12O[C@H]1[C@@H]1O[C@]13[C@]1(O[C@H]1C[C@H]1C4=C(CC[C@@]13C)C(=O)OC4)[C@@H]2O [Triptolide]
maximum observed lethal fraction
Conditions	0.001 µM	0.00316 µM	0.01 µM	0.0316 µM	0.1 µM	0.316 µM	1 µM
U2OS	0.0606	0.0621	0.161	0.621	0.521	0.616	0.638
U2OS BAX/BAK1 DKO	0.0639	0.067	0.0751	0.0882	0.0915	0.0939	0.0919
U2OS BCL2L12-KO	0.0575	0.0652	0.073	0.378	0.23	0.282	0.309
U2OS PTBP1-KO	0.0668	0.0699	0.085	0.24	0.206	0.223	0.286

O=C(O)C1(C(=O)O)CCC1.[NH2-].[NH2-].[Pt+2] [Carboplatin]
maximum observed lethal fraction
Conditions	0.316 µM	1 µM	3.16 µM	10 µM	31.6 µM	100 µM	316 µM
U2OS	0.0493	0.052	0.0533	0.0546	0.056	0.0693	0.517
U2OS BAX/BAK1 DKO	0.0602	0.0593	0.0612	0.0614	0.0671	0.0722	0.0825
U2OS BCL2L12-KO	0.0652	0.0616	0.0672	0.0691	0.0714	0.0762	0.342
U2OS PTBP1-KO	0.0634	0.0611	0.0647	0.0661	0.0674	0.0762	0.54

NC1(C(=O)N[C@@H](CCO)c2ccc(Cl)cc2)CCN(c2nc[nH]c3nccc2-3)CC1 [Capivasertib]
maximum observed lethal fraction
Conditions	0.0316 µM	0.1 µM	0.316 µM	1 µM	3.16 µM	10 µM	31.6 µM
U2OS	0.0687	0.066	0.0671	0.0702	0.0868	0.109	0.201
U2OS BAX/BAK1 DKO	0.0665	0.0661	0.0653	0.0697	0.074	0.078	0.0858
U2OS BCL2L12-KO	0.0788	0.0816	0.0788	0.0844	0.0929	0.108	0.236
U2OS PTBP1-KO	0.0937	0.0911	0.0962	0.0997	0.111	0.132	0.22

O=C(NOC[C@H](O)CO)c1ccc(F)c(F)c1Nc1ccc(I)cc1F [Mirdametinib]
maximum observed lethal fraction
Conditions	0.0316 µM	0.1 µM	0.316 µM	1 µM	3.16 µM	10 µM	31.6 µM
U2OS	0.0749	0.077	0.0842	0.244	0.353	0.435	0.554
U2OS BAX/BAK1 DKO	0.0734	0.0716	0.0737	0.078	0.0794	0.0785	0.0843
U2OS BCL2L12-KO	0.104	0.11	0.123	0.349	0.546	0.58	0.806
U2OS PTBP1-KO	0.0994	0.11	0.102	0.121	0.187	0.229	0.376

CN[C@@H]1C[C@H]2O[C@@](C)([C@@H]1OC)n1c3ccccc3c3c4c(c5c6ccccc6n2c5c31)C(=O)NC4 [Staurosporine]
maximum observed lethal fraction
Conditions	0.01 µM	0.0316 µM	0.1 µM	0.316 µM	1 µM	3.16 µM	10 µM
U2OS	0.508	0.709	0.903	0.819	0.71	0.642	0.811
U2OS BAX/BAK1 DKO	0.104	0.113	0.125	0.121	0.125	0.136	0.254
U2OS BCL2L12-KO	0.437	0.593	0.936	0.877	0.736	0.725	0.894
U2OS PTBP1-KO	0.476	0.77	0.93	0.878	0.737	0.781	0.864

CC1(C)CCC(c2ccc(Cl)cc2)=C(CN2CCN(c3ccc(C(=O)NS(=O)(=O)c4ccc(N[C@H](CCN5CCOCC5)CSc5ccccc5)c(S(=O)(=O)C(F)(F)F)c4)cc3)CC2)C1 [ABT-263]
maximum observed lethal fraction
Conditions	0.1 µM	0.316 µM	1 µM	3.16 µM	10 µM	31.6 µM	100 µM
U2OS	0.0623	0.0847	0.106	0.2	0.247	0.683	0.984
U2OS BAX/BAK1 DKO	0.0556	0.0535	0.0545	0.0548	0.0634	0.172	0.43
U2OS BCL2L12-KO	0.0718	0.0885	0.121	0.225	0.26	0.821	1
U2OS PTBP1-KO	0.0713	0.0786	0.0982	0.131	0.192	0.771	1

CC(C)C[C@H](NC(=O)[C@H](Cc1ccccc1)NC(=O)c1cnccn1)B(O)O [Bortezomib]
maximum observed lethal fraction
Conditions	0.001 µM	0.00316 µM	0.01 µM	0.0316 µM	0.1 µM	0.316 µM	1 µM
U2OS	0.0526	0.193	0.757	0.865	0.9	0.904	0.917
U2OS BAX/BAK1 DKO	0.059	0.0694	0.096	0.27	0.378	0.387	0.443
U2OS BCL2L12-KO	0.0699	0.0922	0.345	0.8	0.791	0.889	0.904
U2OS PTBP1-KO	0.0725	0.108	0.418	0.637	0.731	0.791	0.82

Cc1cc(Nc2ccc(NC(=O)c3ccc(Nc4ccnc5ccccc45)cc3)cc2)nc(N)n1 [SGI-1027]
maximum observed lethal fraction
Conditions	0.0316 µM	0.1 µM	0.316 µM	1 µM	3.16 µM	10 µM	31.6 µM
U2OS	0.0565	0.0566	0.0644	0.414	0.997	1	0.875
U2OS BAX/BAK1 DKO	0.0581	0.0592	0.0626	0.104	0.964	1	0.883
U2OS BCL2L12-KO	0.0572	0.0566	0.0604	0.902	1	0.984	0.888
U2OS PTBP1-KO	0.0577	0.0687	0.0612	0.208	0.977	1	0.886

Reference: the supplement of paper PMC12406974
